Paper PMC9632963, “Preclinical characterization and phase I clinical trial of CT053PTSA targets MET, AXL, and VEGFR2 in patients with advanced solid tumors” (Frontiers in Immunology, 2022)

System: patients with advanced solid tumors
Test: Phase I trial: safety, tolerability, DLT, MTD (CTCAE v4.0)
Assay type: in vivo
Source text: Eligible patients had at least one measurable lesion per RECIST v 1.1, Eastern Cooperative Oncology Group (ECOG) performance status of 0 or 1, and adequate hematological, renal, cardiac and hepatic functions. The primary objectives were to assess safety and tolerability as well as to determine the MTD, DLT, and dose recommended for further study. The secondary objectives were to assess the PK and preliminary efficacy of CT053PTSA.
An initial accelerated titration design was used in the 15 and 30 mg QD cohorts, and the “3+3” schema was used starting in the 60 mg QD cohort. […] The study protocol was approved by an institutional review board at Sun Yat-sen University Cancer Center. Written informed consent was obtained from all the patients before enrollment.
Descriptive statistics of safety are presented per CTCAE v4.0. Subjects who received at least one dose of CT053PTSA were considered eligible to be evaluated and included in safety analyses. […] According to the RECIST 1.1 criteria, imaging examinations were performed at each specified time point in the protocol. The antitumor activity was measured by RECIST1.1.

## Cc1c(C(=O)Nc2ccc(Oc3ccnc4cc(OCC(C)(C)O)ccc34)c(F)c2)c(=O)n(-c2ccccc2)n1C [CT053PTSA]
100mg (n = 7)
  Blood sodium decreased, ≥ G3: 0 n (%)
  Blood uric acid increased, All: 0 n (%)
  Blood uric acid increased, ≥ G3: 0 n (%)
  Decreased appetite, All: 2 (28.6) n (%)
  Decreased appetite, ≥ G3: 0 n (%)
  Diarrhea, All: 1 (14.3) n (%)
  Diarrhea, ≥ G3: 0 n (%)
  Dizziness, All: 1 (14.3) n (%)
  Dizziness, ≥ G3: 0 n (%)
  Dry mouth, All: 1 (14.3) n (%)
  Dry mouth, ≥ G3: 0 n (%)
  Electrocardiogram QT prolonged, All: 1 (14.3) n (%)
  Electrocardiogram QT prolonged, ≥ G3: 0 n (%)
  Electrolyte imbalance, All: 0 n (%)
  Electrolyte imbalance, ≥ G3: 0 n (%)
  Hemoglobin decreased, All: 0 n (%)
  Hemoglobin decreased, ≥ G3: 0 n (%)
  Hypertension, All: 2 (28.6) n (%)
  Hypertension, ≥ G3: 0 n (%)
  Hyponatremia, All: 1 (14.3) n (%)
  Hyponatremia, ≥ G3: 0 n (%)
  Hypoparathyroidism, All: 0 n (%)
  Hypoparathyroidism, ≥ G3: 0 n (%)
  Mouth ulceration, All: 0 n (%)
  Mouth ulceration, ≥ G3: 0 n (%)
  Nausea, All: 1 (14.3) n (%)
  Nausea, ≥ G3: 0 n (%)
  Oropharyngeal pain, All: 1 (14.3) n (%)
  Oropharyngeal pain, ≥ G3: 0 n (%)
  Pain, All: 1 (14.3) n (%)
  Pain, ≥ G3: 0 n (%)
  Palmar-plantar erythrodysaesthesia syndrome, All: 1 (14.3) n (%)
  Palmar-plantar erythrodysaesthesia syndrome, ≥ G3: 0 n (%)
  Platelet count decreased, All: 4 (57.1) n (%)
  Platelet count decreased, ≥ G3: 1 (14.3) n (%)
  Proteinuria, All: 1 (14.3) n (%)
  Proteinuria, ≥ G3: 0 n (%)
  Pyrexia, All: 0 n (%)
  Pyrexia, ≥ G3: 0 n (%)
  Sinus bradycardia, All: 0 n (%)
  Sinus bradycardia, ≥ G3: 0 n (%)
  Stomatitis, All: 1 (14.3) n (%)
  Stomatitis, ≥ G3: 0 n (%)
  Vomiting, All: 0 n (%)
  Vomiting, ≥ G3: 0 n (%)
  leukopenia, All: 4 (57.1) n (%)
  leukopenia, ≥ G3: 0 n (%)
  neutropenia, All: 4 (57.1) n (%)
  neutropenia, ≥ G3: 0 n (%)
  transaminase elevation, All: 6 (85.7) n (%)
  transaminase elevation, ≥ G3: 1 (14.3) n (%)
100 mg QD
  patients with DLT / patients eligible for DLT assessment: 1/6 and one out of six
150mg (n = 5)
  Anaemia, All: 0 n (%)
  Anaemia, ≥ G3: 0 n (%)
  Blood chloride decreased, All: 0 n (%)
  Blood chloride decreased, ≥ G3: 0 n (%)
  Blood creatinine increased, All: 1 (20) n (%)
  Blood creatinine increased, ≥ G3: 0 n (%)
  Blood potassium decreased, All: 1 (20) n (%)
  Blood potassium decreased, ≥ G3: 0 n (%)
  Blood sodium decreased, All: 1 (20) n (%)
  Blood sodium decreased, ≥ G3: 1 (20) n (%)
  Blood uric acid increased, All: 1 (20) n (%)
  Blood uric acid increased, ≥ G3: 0 n (%)
  Decreased appetite, All: 3 (60) n (%)
  Decreased appetite, ≥ G3: 1 (20) n (%)
  Diarrhea, All: 1 (20) n (%)
  Diarrhea, ≥ G3: 0 n (%)
  Dizziness, All: 0 n (%)
  Dizziness, ≥ G3: 0 n (%)
  Dry mouth, All: 0 n (%)
  Dry mouth, ≥ G3: 0 n (%)
  Electrocardiogram QT prolonged, All: 1 (20) n (%)
  Electrocardiogram QT prolonged, ≥ G3: 0 n (%)
  Electrolyte imbalance, All: 1 (20) n (%)
  Electrolyte imbalance, ≥ G3: 0 n (%)
  Hemoglobin decreased, All: 1 (20) n (%)
  Hemoglobin decreased, ≥ G3: 0 n (%)
  Hypertension, All: 2 (40) n (%)
  Hypertension, ≥ G3: 1 (20) n (%)
  Hyponatremia, All: 0 n (%)
  Hyponatremia, ≥ G3: 0 n (%)
  Hypoparathyroidism, All: 1 (20) n (%)
  Hypoparathyroidism, ≥ G3: 0 n (%)
  Mouth ulceration, All: 1 (20) n (%)
  Mouth ulceration, ≥ G3: 0 n (%)
  Nausea, All: 1 (20) n (%)
  Nausea, ≥ G3: 0 n (%)
  Oropharyngeal pain, All: 0 n (%)
  Oropharyngeal pain, ≥ G3: 0 n (%)
  Pain, All: 0 n (%)
  Pain, ≥ G3: 0 n (%)
  Palmar-plantar erythrodysaesthesia syndrome, All: 0 n (%)
  Palmar-plantar erythrodysaesthesia syndrome, ≥ G3: 0 n (%)
  Platelet count decreased, All: 1 (20) n (%)
